Experimental findings from paper PMC6479099, “Aminoguanidines: New leads for treatment of Giardia duodenalis infection” (International Journal for Parasitology: Drugs and Drug …, 2019) are described below.

“Also recorded” adds a separate entry of the source.

The nature of series [1]: In vitro cytotoxicity (WST-1), human lung fibroblast. The format is cell-based. As to conditions: HEL 299 human lung fibroblast cells, 24 h exposure. The method, then: Cells were passaged every 3 days. Assays were performed in 96 well plates in duplicate. Wells were seeded with 50 000 cells.
Background: Tetrazolium assays rely on reduction of a dye to a coloured formazan, in cell work by metabolically active cells.

The next series relates to Giardia trophozoites. Nature of the series: Morphology of stained trophozoites at 100x magnification. The series is classed as cell-based, Giardia duodenalis. As to conditions: at IC50, 100 x magnification. The method, then: A second screening method, based on counting adherent trophozoites, was developed and used to validate the primary screen method, modified from earlier adherence assay protocols ([Crouch et al., 1986]). The assay was prepared in 24 well plates with plastic coverslips placed in the bottom. Trophozoites were prepared as above by placing on ice and ∼5 × 10^5 cells/mL were added to each well. Drugs prepared in DMSO were added at the required concentration, with the DMSO concentration never exceeding 1%. Assay plates were incubated for 5 h at 37 °C under anaerobic conditions, the media removed and cells adhering to the coverslips were fixed with glutaraldehyde or methanol. Once the coverslips were dry, cells were stained with a Romanowsky stain variant (Rapid stain), fixed to a glass slide and imaged at 10x or 100x magnification. Images (10x magnification) were processed with DotCount v1.2 software (http://reuter.mit.edu/, 2008–2012 ^© Martin Reuter) to count the number of cells present and data analysed using GraphPad Prism version 6.00 for Windows, GraphPad Software, La Jolla California USA, www.graphpad.com. Images (100x magnification) were assessed for obvious morphological changes.
Fig. 4 Morphological effect of Robenidine and NCL 099 on Giardia trophozoites. Giardia trophozoites were exposed to each compound for 24 h before fixation with glutaraldehyde and staining following the Diff quik protocol. A-control cells, B – cells treated with metronidazole (IC50, 2 μM), C- robendine treated cells (IC50, 2 μM), D – NCL 099 treated cells (IC50, 3 μM), E − NCL 099 treated cells (2 x IC50).

Series [2] can be described thus: In vitro cytotoxicity, murine macrophage cells. As to conditions: mouse.
Series [3] relates to Giardia BAH2c2 trophozoites. Nature of the series: Electron microscopy (TEM, SEM) of trophozoites. The series is classed as cell-based, Giardia duodenalis. Here is the method: To determine any effects robenidine has on the ultrastructure of Giardia trophozoites, transmission electron microscopy (TEM) was performed. Giardia BAH2c2 trophozoites were exposed to 3 X IC50 of robenidine or metronidazole for 1 h and placed on ice for 40 min to detach trophozoites then washed twice with PBS (900×g, 10 min 4 °C) and fixed with a combination of glutaraldehyde and formaldehyde overnight. Cells were washed with PBS +4% sucrose before fixation with osmium tetroxide for 1 h. Samples were dehydrated through a graded ethanol series (70–100%) followed by suspension in propylene oxide for ten minutes. Samples were centrifuged and suspended in 1:1 mixture of propylene oxide and epoxy resin for an hour before centrifugation. Following overnight suspension in 100% epoxy resin samples were resuspended in fresh resin and polymerized at 70 °C for 24 h. After sectioning samples were stained with uranyl acetate and lead citrate. Sections were imaged with a FEI tecnai G2 Spirit Transmission Electron microscope (Adelaide Microscopy, University of Adelaide).
To determine the effect that robenidine and metronidazole has on the cell surface of the Giardia trophozoites, scanning electron microscopy (SEM) was performed as follows. Giardia BAH2c2 trophozoites were prepared as for TEM, however they were exposed to compounds for 2 or 4 h. […]

Series [4] relates to Giardia trophozoites (BAH2c2). Nature of the series: Proliferation of Giardia trophozoites (resazurin, 96 h). The series is classed as cell-based, Giardia duodenalis. As to conditions: BAH2c2, 1000 trophozoites per well, read-out: IC50prol, Assemblage A (50% inhibition in the proliferation assay). Here is the method: The effect of the compounds on the proliferation of Giardia trophozoites was determined following the protocol outlined above, with the following modifications. The number of trophozoites was decreased to 1000 per well and the cells were incubated in the presence of each compound for 96 h at 37 °C.
The IC50 of each compound was determined using a resazurin reduction assay, which measures the metabolic activity of cells, using the log (inhibitor) vs. normalised response – variable slope function in Graphpad Prism. The compounds were tested against an assemblage A (BAH2c2, 24 h) and an assemblage B (BAH12, 24 h) isolate (Table 1). […] The effect of the compounds on the proliferation of Giardia trophozoites (BAH2c2) was also determined.
A general note: Resazurin is reduced to fluorescent resorufin, in cell work by metabolically active cells.

As usually defined, the GI50 is the concentration giving 50% growth inhibition. High values mean lower sensitivity of the cells, low ones greater sensitivity of the cells. In the case of `N=C(N/N=C/c1ccc(Cl)cc1)N/N=C/c1ccc(Cl)cc1` [Robenidine, robenidine], the GI50 at 24 h in series [1] was 17.7 µM. For the same molecule, the “Morphological effect on stained trophozoites at the IC50” value in the series with Giardia trophozoites was “decrease in the intensity of the membrane stain; also recorded: enlarged nuclei”. Moreover, the GI50 in series [2] amounted to 17.1 µM. In series [3] (3 x IC50, 1 h exposure), the “Ultrastructural changes by TEM” value is on record as “extreme membrane blebbing”. Besides, the “Cell surface changes by SEM” value in series [3] (3 x IC50, 2 h exposure) is “extreme membrane blebbing”. The IC50 in series [4] worked out at 1.2 ± 0.7 µM.
